# Literature values, collected in patent US8613914B2, “Peptidomimetic sulfamide compounds and antiviral uses thereof” (Novartis AG, priority 2009, dated 2013).
# Test system: HCV
# Settings: ribavirin alone, cited from earlier work
structure (smiles),measurement,setting,value
"NC(=O)c1ncn([C@@H]2O[C@H](CO)[C@@H](O)[C@H]2O)n1 [Ribavirin, ribavirin]",serum levels of HCV-RNA,patients,does not lower serum levels of HCV-RNA
same,patients in whom serum amino transferase levels are reduced to normal,,40%
